Laboratory results: article PMC7156724, “Potent BRD4 inhibitor suppresses cancer cell-macrophage interaction” (Nature Communications, 2020)
Where “and” joins values, the source holds several entries; their conditions need not be identical. Identical values can stand only once.

Key:
[1] = system: A375 melanoma cells; assay: AlamarBlue assay, A375; format: cell-based, human; conditions: for Cellular activity in melanoma cells (A375), alamarBlue: Fig.1g, replicates
Description: 3. AlamarBlue assay. AlamarBlue was made by resazurin sodium salt (Sigma, Cat
# 199303) dissolved in PBS.
NCI-H211, MDA-MB231 and A375 cells were plated in 96-well plates at approximately 30% confluence and left overnight to adhere. In the following day, […]
of treatment, 10 μl AlamarBlue reagent (0.3 mg/ml) was added to each well, and after 18h, the florescence intensity in each well was measured using a top-reading fluorescent plate reader with excitation at 530 nm and emission at 590 nm. […]

[2] = Equilibrium dialysis assay, CD-1 mouse plasma
Description: The concentration was calculated using the peak area ratio of analyte and internal […]
The results were calculated by the following equations:
% Unbound = 100 *FC / TC, % Bound = 100 * (1-FC / TC)
% Recovery = 100 * (FC + TC) / T0
TC = Total compound concentration as determined by the calculated concentration on the retentate side of the membrane
FC = Free compound concentration as determined by the calculated concentration on the dialysate side of the membrane […]
Equation of first order kinetics: […]
8. Equilibrium dialysis assay. Binding with plasma protein and recovery rate of NHWD-870 were performed with human, CD-1 mouse and SD rat plasma as […]
described 2. […] The concentration was […]
calculated using the peak area ratio of analyte and internal standard. The results were calculated by the following equations: % Unbound = 100 *FC / TC, % Bound = 100 * (1-FC / TC); % Recovery = 100 * (FC + TC) / T0; TC = Total compound concentration as determined by the calculated concentration on the retentate side of the membrane; FC = Free compound concentration as determined by the (1 picture or pasted object on this page, not shown here) […]
calculated concentration on the dialysate side of the membrane; T0 = To t a l compound concentration as determined before dialysis. […]
10. hERG channel assay. […]
HEK293 cell line stably

[3] = system: H526 SCLC tumors; assay: H526 SCLC xenograft tumor growth; format: in vivo, mouse; conditions: for Tumor volume: Fig.3a, n=6, individual animals
Description: PO, oral administration; QD, once daily; BID, twice daily. b–d Tumor growth curves for A2780 ovarian tumor (n = 5) (b), TMD8 large B cell lymphoma (n = 6) (c), and B16F10 melanoma (n = 5) (d) bearing mice treated with the indicated compounds once daily for 11-21 days. e, f Tumor growth curves for A375 melanoma (n = 6) (e), and patient-derived xenograft (PDX) of melanoma (n = 5) (f) bearing mice treated with the indicated compounds once daily (5 days on, 2 days off) for 21 days. For d–f, NHWD-870 used is NHWD-870-HCl synthesized using Suzuki coupling route. Data are presented as mean ± SEM in (a, b, d, f) and mean + SEM in (c, e). p values were calculated using two-tailed, unpaired t tests. *p < 0.05; **p < 0.01; ***p < 0.001. Source data are provided as a Source Data file.
4–6 weeks old female BALB/c nude mice were used for most experiments, with the exception of 6–8 weeks old female C57BL/6 mice were used for B16F10 experiments, and 6–8 weeks old male BALB/c nude mice and SD rats were used for pharmacokinetic experiments. All animals were purchased from Shanghai SIPPR-Bk Lab Animal Co., Ltd. All animals were housed under a regimen of 12 h light/12 h dark cycles and specific pathogen-free conditions. 5×10^6 NCI-H526, ES-2, MDA-MB231, A2780, A375, B16F10, and TMD-8 cells (0.1 ml) were injected subcutaneously into female nude mice. The melanoma patient-derived xenograft model was derived from a human melanoma sample (BRAF, NARS and NF1 wild type, and p53 mutant) removed from a patient in Xiangya Hospital. Surgically removed tumor fragments were implanted subcutaneously into female NSG mice. When the tumors grew to ~1000 mm^3, they were harvested and cryopreserved or immediately re-implanted for expansion or experiments. Mouse body weight and tumor sizes were measured every 3 days. Once the tumors grew to 150–200 mm^3, mice were treated with the compounds as described in the Figures. 1 × 10^6 A2780 cells (1 ml) were injected into the abdominal cavity of nude mice. Ascitic volume and tumor weight were measured by an electronic balance. All the procedures were evaluated and approved by the Institutional Animal Care and Use Committee of Central South University and Yale University.

Cc1nnn(C)c1-c1cnc2c3c4cnn(C)c4ccc3n([C@H](c3ccccc3)C3CCOCC3)c2c1 [NHWD-870]
fold more potent than GSK-525762 or OTX015 ([1]; A375 cells): about 14 fold
fold more potent than I-BET151 ([1]; A375 cells): about 23 fold
Cellular activity in melanoma cells (A375), alamarBlue ([1]; concentration(nM) 0.21442): 0.8628 and 1.0579
Cellular activity in melanoma cells (A375), alamarBlue ([1]; concentration(nM) 0.31236): 16.3424 and 12.5613
Cellular activity in melanoma cells (A375), alamarBlue ([1]; concentration(nM) 0.4103): 30.3045 and 25.7042
Cellular activity in melanoma cells (A375), alamarBlue ([1]; concentration(nM) 0.6032): 65.3038 and 63.4524
Cellular activity in melanoma cells (A375), alamarBlue ([1]; concentration(nM) 1.2043): 75.3216 and 83.4358
Cellular activity in melanoma cells (A375), alamarBlue ([1]; concentration(nM) 1.8024): 92.8346 and 91.942
Cellular activity in melanoma cells (A375), alamarBlue ([1]; concentration(nM) 2.4): 100.774 and 99.5602
Cellular activity in melanoma cells (A375), alamarBlue ([1]; concentration(nM) 3): 101.341 and 101.79
IC50 ([1]; Homo sapiens, A-375, nM printed in b8, the picture prints no unit, read-out: IC50, cellular activity in A375 (alamarBlue)): 2.46 nM
fraction unbound ([2]; CD-1, mouse, plasma): 0.026
recovery ([2]; CD-1, mouse, plasma): 95.2%
% Bound ([2]; CD-1 mouse plasma, equilibrium dialysis): 97.4%
Tumor volume ([3]; 0.75mg/kg p.o. QD x 21D, day 0): 192.244 mm^3 and 263.88 mm^3 and 212.226 mm^3 and 157.172 mm^3 and 251.256 mm^3 and 74.1662 mm^3
Tumor volume ([3]; 0.75mg/kg p.o. QD x 21D, day 3): 395.966 mm^3 and 556.678 mm^3 and 654.987 mm^3 and 201.421 mm^3 and 423.505 mm^3 and 90.8277 mm^3
Tumor volume ([3]; 0.75mg/kg p.o. QD x 21D, day 7): 723.612 mm^3 and 1124.37 mm^3 and 964.914 mm^3 and 402.947 mm^3 and 655.847 mm^3 and 216.235 mm^3
Tumor volume ([3]; 0.75mg/kg p.o. QD x 21D, day 10): 1123.82 mm^3 and 1337.09 mm^3 and 1219.11 mm^3 and 614.795 mm^3 and 939.345 mm^3 and 324.637 mm^3
Tumor volume ([3]; 0.75mg/kg p.o. QD x 21D, day 14): 1169.07 mm^3 and 1508.45 mm^3 and 1544.25 mm^3 and 755.744 mm^3 and 1018.31 mm^3 and 369.016 mm^3
Tumor volume ([3]; 0.75mg/kg p.o. QD x 21D, day 17): 1563.43 mm^3 and 1842.12 mm^3 and 2108.97 mm^3 and 937.093 mm^3 and 1199.84 mm^3 and 528.17 mm^3
Tumor volume ([3]; 0.75mg/kg p.o. QD x 21D, day 20): 1882.72 mm^3 and 1980.4 mm^3 and 2365.8 mm^3 and 1110.57 mm^3 and 1230.51 mm^3 and 727.098 mm^3
Tumor volume ([3]; 1.5mg/kg p.o. BID x 21D, day 0): 109.221 mm^3 and 224.83 mm^3 and 299.894 mm^3
Tumor volume ([3]; 1.5mg/kg p.o. BID x 21D, day 3): 144.898 mm^3 and 505.755 mm^3
Tumor volume ([3]; 1.5mg/kg p.o. BID x 21D, day 7): 197.484 mm^3 and 503.899 mm^3
Tumor volume ([3]; 1.5mg/kg p.o. BID x 21D, day 10): 131.255 mm^3 and 391.019 mm^3
Tumor volume ([3]; 1.5mg/kg p.o. BID x 21D, day 14): 62.3145 mm^3 and 300.826 mm^3
Tumor volume ([3]; 1.5mg/kg p.o. BID x 21D, day 17): 47.429 mm^3 and 191.773 mm^3
Tumor volume ([3]; 1.5mg/kg p.o. BID x 21D, day 20): 26.6114 mm^3 and 100.415 mm^3 and 135.956 mm^3
Tumor volume ([3]; 1.5mg/kg p.o. QD x 21D, day 0): 70.0321 mm^3 and 190.911 mm^3 and 142.166 mm^3 and 225.589 mm^3 and 289.503 mm^3 and 248.923 mm^3
Tumor volume ([3]; 1.5mg/kg p.o. QD x 21D, day 3): 54.6804 mm^3 and 344.715 mm^3 and 214.258 mm^3 and 388.716 mm^3 and 680.326 mm^3 and 337.153 mm^3
Tumor volume ([3]; 1.5mg/kg p.o. QD x 21D, day 7): 52.3406 mm^3 and 448.169 mm^3 and 304.6 mm^3 and 593.496 mm^3 and 1004.88 mm^3 and 603.12 mm^3
Tumor volume ([3]; 1.5mg/kg p.o. QD x 21D, day 10): 65.7752 mm^3 and 568.076 mm^3 and 360.126 mm^3 and 706.593 mm^3 and 1344.39 mm^3 and 669.797 mm^3
Tumor volume ([3]; 1.5mg/kg p.o. QD x 21D, day 14): 53.8674 mm^3 and 610.408 mm^3 and 386.917 mm^3 and 812.577 mm^3 and 1371.12 mm^3 and 772.943 mm^3
Tumor volume ([3]; 1.5mg/kg p.o. QD x 21D, day 17): 48.5889 mm^3 and 810.7 mm^3 and 443.445 mm^3 and 889.286 mm^3 and 1654.72 mm^3 and 1027.16 mm^3
Tumor volume ([3]; 1.5mg/kg p.o. QD x 21D, day 20): 34.4047 mm^3 and 640.677 mm^3 and 402.424 mm^3 and 852.013 mm^3 and 1472.9 mm^3 and 894.82 mm^3
effect on tumor growth ([3]; H526 SCLC, oral, 3 mg/kg per day or 1.5 mg/kg twice per day, 21 days): regressed established H526 SCLC tumors
